Measured values taken from EP4652992A1, “OPHTHALMIC COMPOSITION FOR PREVENTING AND TREATING CONJUNCTIVA EPITHELIUM DAMAGE AND ASSOCIATED DISCOMFORT CAUSED BY HYPOTONIZING FORMULATIONS” (FB Vision S.p.A., priority 2024, dated 2025).
Structures can show the parent of a compound that is named as a salt.

Legend:
[1] = test system: human conjunctival epithelial cells (HCE); experiment: Cell growth and vitality of HCE cells (trypan blue exclusion test and MTT assay); assay type: cell-based
Description: In vitro tests on human conjunctival epithelial cells (HCE) for the experimental verification of the cytoprotective and antioxidant activity of beta caryophyllene (BCP) on the oxidative damage induced by anti-glaucoma medicines (AD). Characterization of the cytoprotective effects of beta-caryophyllene (BCP) on the human conjunctival epithelial cells exposed to oxidative and mitochondrial stress. This stress mimics the irritant and inflammatory action of hypotonizing ophthalmic medicines on the external structures of the human eye.
The HCE cells were exposed for 24 and 48 hours with increasing concentrations of BRIM (from 0.25 up to 4 mg/mL), DZL (from 0.086 up to 0.43%) and TFP (from 0.9 up to 30 µg/mL), alone and in combination with various concentrations of BCP (from 1.25 up to 40 µM), and the cell growth and vitality were evaluated respectively using the trypan blue exclusion test and the MTT assay. […] The IC50 ([…]) values for BRIM and DZL on their own are given respectively in the accompanying Figures 1 and 2. The in vitro interactions between BCP and BRIM or DZL, as illustrated in Figures 3A and B, were determined by the ÿE model of non-parametric response surface analysis. […] In particular, the most advantageous combinations were 10 µM BCP with 2 mg/ml BRIM and 2.5 µM BCP with 0.25% DZL. Of the combinations selected, only the combination 10 µM BCP and 2 mg/mL BRIM, which reflects the commercial formulation of the eye drops for treatment, was studied further. All the statistical comparisons were performed with respect to vCTR (vehicle control).

[2] = test system: HCE cells; experiment: Apoptosis, cytofluorimetric analysis; assay type: cell-based, human; details: BRIM/BCP with respect to BRIM
Description: Figure 5 is a bar graph showing the percentage values of apoptotic cells (early and late) and necrotic cells in experimental groups exposed for 48 hours to BRIM and BCP.

[3] = test system: HCE cells; details: 3 - 24 hours, any analyzed moment, JC-1 dye
Description: After the treatments, the ÿÿm was analyzed using JC-1 dye.
Measurements of mitochondrial activity, performed by means of experiments over time (3 - 24 hours), were evaluated by means of coloring with JC-1 dye.

[4] = test system: HCE cells; details: 24 hours, vs. vCTR
Description: After 24 hours of treatment, intracellular production of ROS was analyzed using DCHF-DA with respect to vCTR. The values shown represent the average ± SE of the results of three independent experiments; one-way ANOVA followed by the Holm-Šidák method; *p<0.05 with respect to vCTR; p<0.05 BRIM/BCP with respect to BRIM dyeing with fluorescent dye. The values express the intensity of the fluorescence (Arbitrary Units, AU) and represent the average ± SE of the results of three independent experiments; one-way ANOVA in the rows; *p<0.05 with respect to vCTR.

[5] = test system: HCE cells; details: 48 hours of incubation
Description: The distribution of cell cycle phases is shown using PI dyeing and analyzed using flow cytometry. The bar charts show the percentage of cells in each phase and represent the average ± SE of the results of three independent experiments; one-way ANOVA followed by Bonferroni's t-test; *p<0.05 with respect to vCTR.
The cells were treated for 24 hours and 48 hours, and cytofluorimetric analyses of the cell cycle phase were performed for the distribution (Figure 4) and the apoptosis (Figure 5).

In the case of `C=C1CC/C=C(\C)CC[C@@H]2[C@@H]1CC2(C)C` [BCP, (1R,4E,9S)-4,11,11-Trimethyl-8-methylidenebicyclo[7.2.0]undec-4-ene], the “protective effects of BCP in the cells treated with BRIM and DZL” value ([1]; HCE cells, 48 hours of incubation, BCP from 1.25 up to 40 µM) is reported as “Significant protective effects”, the “most advantageous combination, BCP concentration with BRIM” value ([1]; with 2 mg/ml BRIM, non-parametric response surface analysis) is reported as 10 µM and the “most advantageous combination, BCP concentration with DZL” value ([1]; with 0.25% DZL, non-parametric response surface analysis) is reported as 2.5 µM. For the same molecule, the “early apoptosis reduced (apoptosis induced by BRIM)” value ([2]; 24 and 48 hours) was “approximately 35%” and the “late apoptosis decrease (apoptosis induced by BRIM)” value ([2]; 48 hours) was “approximately 15%”.

In the case of `Brc1c(NC2=NCCN2)ccc2nccnc12` [BRIM, Brimonidine tartrate], the “mitochondrial membrane potential (ÿÿm)” value [3] is reported as “marked mitochondrial depolarization”, the “increase in ROS production” value [4] is reported as “approximately 30%” and the S phase [5] is reported as “significant decreases”. For the same molecule, the “percentage of cells in the G2/M phase” value ([5]; vehicle control 12%, 2 mg/mL BRIM, 10 µM BCP) was 33.73%.

`CC(C)OC(=O)CCC/C=C\C[C@@H]1[C@@H](/C=C/C(F)(F)COc2ccccc2)[C@H](O)C[C@@H]1O` [TFP, tafluprost] was tested, and the cytotoxic effects ([1]; HCE cells, 24 and 48 hours, up to concentrations of 30 µg/mL) was “no cytotoxic effects”.
